Experimental data reported in patent US20100267561A1, “HERBICIDAL PYRIDAZINONE DERIVATIVES” (priority 2007, published 2010).
Read-outs that look alike come from different tables or passages of the source.

Experiments:
Experiment in all cases: Test B pre-/postemergence plant response
Assay type in all cases: in vivo
[1] = system: downy bromegrass (Bromus tectorum); conditions: for pest or weed control at 31 g/ha: 31 g ai/ha; for pest or weed control at 62 g/ha: 62 g ai/ha, 100 complete control
From the text: (§1) Seeds of plant species selected from blackgrass (Alopecurus myosuroides), downy bromegrass (Bromus tectorum), green foxtail (Setaria viridis), Italian ryegrass (Lolium multiflorum), wheat (Triticum aestivum), wild oat (Avena fatua), catchweed bedstraw (Galium aparine), bermudagrass (Cynodon dactylon), surinam grass (Brachiaria decumbens), cocklebur (Xanthium strumarium), corn (Zea mays), large crabgrass (Digitaria sanguinalis), woolly cupgrass (Eriochloa villosa), giant foxtail (Setaria faberii), goosegrass (Eleusine indica), johnsongrass (Sorghum halepense), kochia (Kochia scoparia), lambsquarters (Chenopodium album), morningglory (Ipomoea coccinea), eastern black (E.B.) nightshade (Solanum ptycanthum), yellow nutsedge (Cyperus esculentus), pigweed (Amaranthus retroflexus), common ragweed (Ambrosia elation), Russian thistle (Salsola iberica), soybean (Glycine max), common (oilseed) sunflower (Helianthus annuus), and velvetleaf (Abutilon theophrasti) were planted and treated preemergence with test chemicals formulated in a non-phytotoxic solvent mixture which included a surfactant.
(§2) At the same time, plants selected from these crop and weed species and also winter barley (Hordeum vulgare), canarygrass (Phalaris minor), chickweed (Stellaria media) and windgrass (Apera spica-venti) were treated with postemergence applications of some of the test chemicals formulated in the same manner. Plants ranged in height from 2 to 18 cm (1- to 4-leaf stage) for postemergence treatments.
(§3) Plant species in the flooded paddy test consisted of rice (Oryza sativa), umbrella sedge (Cyperus difformis), ducksalad (Heteranthera limosa) and barnyardgrass (Echinochloa crus-galli) grown to the 2-leaf stage for testing. At time of treatment, test pots were flooded to 3 cm above the soil surface, treated by application of test compounds directly to the paddy water, and then maintained at that water depth for the duration of the test. Treated plants and controls were maintained in a greenhouse for 13 to 15 days, after which time all species were compared to controls and visually evaluated. Plant response ratings, summarized in Table B, are based on a scale of 0 to 100 where 0 is no effect and 100 is complete control. A dash (-) response means no test result.

[2] = system: giant foxtail (Setaria faberii); conditions: for pest or weed control at 31 g/ha: 31 g ai/ha; for pest or weed control at 62 g/ha: 62 g ai/ha, 100 complete control
From the text: as §1, §2, §3

[3] = system: catchweed bedstraw (Galium aparine); conditions: Preemergence
From the text: as §1, §2, §3

wild oat (Avena fatua) = conditions: for pest or weed control at 31 g/ha / pest or weed control at 62 g/ha: Avena fatua, read-out: Plant response rating, Oat, Wild; for pest or weed control at 31 g/ha: 31 g ai/ha; for pest or weed control at 62 g/ha: 62 g ai/ha, 100 complete control
From the text: as §1, §2, §3

[4] = system: blackgrass (Alopecurus myosuroides); conditions: for pest or weed control at 31 g/ha: 31 g ai/ha; for pest or weed control at 62 g/ha: 62 g ai/ha, 100 complete control
From the text: as §1, §2, §3

[5] = system: yellow nutsedge (Cyperus esculentus); conditions: for pest or weed control at 31 g/ha / pest or weed control at 62 g/ha: Cyperus, read-out: Plant response rating, Nutsedge, Yellow; for pest or weed control at 31 g/ha: 31 g ai/ha; for pest or weed control at 62 g/ha: 62 g ai/ha, 100 complete control
From the text: as §1, §2, §3

[6] = system: Italian ryegrass (Lolium multiflorum); conditions: for pest or weed control at 31 g/ha / pest or weed control at 62 g/ha: Lolium multiflorum, read-out: Plant response rating, Ryegrass, Italian; for pest or weed control at 31 g/ha: 31 g ai/ha; for pest or weed control at 62 g/ha: 62 g ai/ha, 100 complete control
From the text: as §1, §2, §3

[7] = 8 g ai/ha, postemergence, 0-100 scale
[8] = Preemergence, 8 g ai/ha, scale 0 to 100 (0 no effect, 100 complete control)
[9] = Preemergence, 16 g ai/ha, scale 0 to 100
[10] = 16 g ai/ha, postemergence, 0-100 scale
[11] = post-emergence, Postemergence, scale 0 to 100
[12] = post-emergence, Postemergence, scale 0 to 100, 0 no effect
[13] = pre-emergence, Preemergence, scale 0 to 100 (0 no effect, 100 complete control)
[14] = pre-emergence, Preemergence, 0 to 100 scale, 0 no effect

With `Cc1nn(C)c(=O)c(-c2nc(-c3ccc(Cl)cc3)sc2C)c1O` [Compound 79, 4-[2-(4-chlorophenyl)-5-methyl-4-thiazolyl]-5-hydroxy-2,6-dimethyl-3(2H)-pyridazinone] the “Bromegrass, Downy plant response rating” value [1, 7] was 0, the pest or weed control at 16 g/ha ([1]; Bromus tectorum, post-emergence, Postemergence, 16 g ai/ha, scale 0 to 100, read-out: Plant response rating, Bromegrass, Downy) was 0% and the pest or weed control at 31 g/ha ([1]; Bromus tectorum, post-emergence, Postemergence, scale 0 to 100, read-out: Plant response rating, Bromegrass, Downy) was 30%. It also gave a pest or weed control at 62 g/ha ([1]; Bromus tectorum, post-emergence, Postemergence, scale 0 to 100, 0 no effect, read-out: Plant response rating, Bromegrass, Downy) of 50%, a pest or weed control at 31 g/ha ([1]; Bromus tectorum, pre-emergence, Preemergence, scale 0 to 100 (0 no effect, 100 complete control), read-out: Plant response rating, Bromegrass, Downy) of 55% and a pest or weed control at 62 g/ha ([1]; Bromus tectorum, pre-emergence, Preemergence, 0 to 100 scale, 0 no effect, read-out: Plant response rating, Bromegrass, Downy) of 80%. For the same molecule, the “Bromegrass, Downy plant response rating” value [1, 8] was 0, the “Bromegrass, Downy plant response rating” value [1, 9] was 0 and the “Foxtail, Giant plant response rating” value [2, 7] was 75. For the same molecule, the “Foxtail, Giant plant response rating” value [2, 8] was 55, the “Foxtail, Giant plant response rating” value [2, 9] was 100 and the pest or weed control at 16 g/ha ([2]; Setaria faberi, post-emergence, Postemergence, 16 g ai/ha, scale 0 to 100, read-out: Plant response rating, Foxtail, Giant) was 80%. The pest or weed control at 31 g/ha ([2]; Setaria faberi, post-emergence, Postemergence, scale 0 to 100, read-out: Plant response rating, Foxtail, Giant) was 85%, the pest or weed control at 62 g/ha ([2]; Setaria faberi, post-emergence, Postemergence, scale 0 to 100, 0 no effect, read-out: Plant response rating, Foxtail, Giant) was 90% and the pest or weed control at 31 g/ha ([2]; Setaria faberi, pre-emergence, Preemergence, scale 0 to 100 (0 no effect, 100 complete control), read-out: Plant response rating, Foxtail, Giant) was 100%. It also gave a pest or weed control at 62 g/ha ([2]; Setaria faberi, pre-emergence, Preemergence, 0 to 100 scale, 0 no effect, read-out: Plant response rating, Foxtail, Giant) of 100%, a pest or weed control at 31 g/ha ([3]; Galium aparine, pre-emergence, 31 g ai/ha, scale 0 to 100 (0 no effect, 100 complete control), read-out: Plant response rating, Galium) of 0% and a pest or weed control at 62 g/ha ([3]; Galium aparine, pre-emergence, 62 g ai/ha, 0 to 100 scale, 0 no effect, 100 complete control, read-out: Plant response rating, Galium) of 0%. The “Galium plant response rating” value ([3]; 8 g ai/ha, scale 0 to 100 (0 no effect, 100 complete control)) was 0, the “Galium plant response rating” value ([3]; 16 g ai/ha, scale 0 to 100) was 0 and the “Oat, Wild plant response rating” value (wild oat (Avena fatua); [7]) was 30. For the same molecule, the “Oat, Wild plant response rating” value (wild oat (Avena fatua); [10]) was 45, the pest or weed control at 31 g/ha (wild oat (Avena fatua); [11]) was 60% and the pest or weed control at 62 g/ha (wild oat (Avena fatua); [12]) was 98%. The pest or weed control at 31 g/ha (wild oat (Avena fatua); [13]) was 70%, the pest or weed control at 62 g/ha (wild oat (Avena fatua); [14]) was 95% and the “Oat, Wild plant response rating” value (wild oat (Avena fatua); [8]) was 0. For the same molecule, the “Oat, Wild plant response rating” value (wild oat (Avena fatua); [9]) was 0, the “Blackgrass plant response rating” value [4, 7] was 50 and the pest or weed control at 16 g/ha ([4]; Alopecurus myosuroides, post-emergence, Postemergence, 16 g ai/ha, scale 0 to 100, read-out: Plant response rating, Blackgrass) was 50%. For the same molecule, the pest or weed control at 31 g/ha ([4]; Alopecurus myosuroides, post-emergence, Postemergence, scale 0 to 100, read-out: Plant response rating, Blackgrass) was 90%, the pest or weed control at 62 g/ha ([4]; Alopecurus myosuroides, post-emergence, Postemergence, scale 0 to 100, 0 no effect, read-out: Plant response rating, Blackgrass) was 98% and the pest or weed control at 31 g/ha ([4]; Alopecurus myosuroides, pre-emergence, Preemergence, scale 0 to 100 (0 no effect, 100 complete control), read-out: Plant response rating, Blackgrass) was 98%. For the same molecule, the pest or weed control at 62 g/ha ([4]; Alopecurus myosuroides, pre-emergence, Preemergence, 0 to 100 scale, 0 no effect, read-out: Plant response rating, Blackgrass) was 100%, the “Blackgrass plant response rating” value [4, 8] was 85 and the “Blackgrass plant response rating” value [4, 9] was 85. For the same molecule, the “Nutsedge, Yellow plant response rating” value [5, 7] was 0, the “Nutsedge, Yellow plant response rating” value [5, 10] was 0 and the pest or weed control at 31 g/ha [5, 11] was 0%. The pest or weed control at 62 g/ha [5, 12] was 0%, the pest or weed control at 31 g/ha [5, 13] was 0% and the pest or weed control at 62 g/ha [5, 14] was 0%. For the same molecule, the “Nutsedge, Yellow plant response rating” value [5, 8] was 0, the “Nutsedge, Yellow plant response rating” value [5, 9] was 0 and the “Ryegrass, Italian plant response rating” value [6, 7] was 55. The “Ryegrass, Italian plant response rating” value [6, 10] was 70, the pest or weed control at 31 g/ha [6, 11] was 80% and the pest or weed control at 62 g/ha [6, 12] was 90%. For the same molecule, the pest or weed control at 31 g/ha [6, 13] was 100%, the pest or weed control at 62 g/ha [6, 14] was 100% and the “Ryegrass, Italian plant response rating” value [6, 8] was 0.
